{"source": "patent US5436243A", "about": "“Aminoanthraquinone derivatives to combat multidrug resistance” (priority 1993, dated 1995)", "key": {"[1]": {"tested_on": "MCF7 Adr 10 human breast cancer cells", "experiment": "Vinblastine accumulation assay, MCF7 Adr 10", "format": "cell-based", "conditions": "for activity in vinblastine accumulation assay / drug accumulation: MDR MCF7", "protocol": "[^3 H] vinblastine ([^3 H] VLB) was added to a final concentration of 100 nM and the cells were incubated for 2.5 hours. At this time, the cells were washed 3 times in ice cold PBS and lysed in buffer containing 0.1% Triton X-100. Net accumulation of [^3 H] vinblastine was expressed as pmol/mg protein. In [^3 H]"}, "[2]": {"experiment": "in vitro", "conditions": "human", "protocol": "(§1) Myelosuppression is often a dose limiting side effect of chemotherapeutic agents. […] The toxicities to human granulocyte-macrophage progenitors (CFU-GM) of 1b, 1c, and VLB was assessed by measuring inhibition of CFU-GM proliferation in cultures continuously exposed to each agent alone and compared to the toxicities to sensitive and resistant MCF7 in tumor cell clonogenic assays.\n(§2) METHOD: The CFLI-GM assay measures clonal proliferation of granulocyte/macrophage precursors in semisolid agar cultures. The progeny of the granulocyte/macrophage precursors remain in proximity of the progenitor cells and form colonies. Colonies which contain greater than 40 cells after 10-12 days of culture are counted using an inverted phase contrast microscope. The tumor cell clonogenic assays measure clonal proliferation of tumor cells. In this assay, 300-500 cells are plated in 10 cm^2 wells, allowed to adhere overnight, and are treated the following day. Tumor cell colonies were counted after 10-12 days of culture. The times of exposure in these experiments are similar; however, the concentrations of FCS are 20% in the CFU-GM assay and 10% in the tumor cell clonogenic assays. The IC50's are calculated as described above for the MTT proliferation assays. (See Example 4).\n(§3) To facilitate this comparison, a CFLI-GM toxicity index was calculated by dividing the CFU-GM IC50 by the respective tumor cell clonogenic IC50's in sensitive and resistant cells."}, "[3]": {"tested_on": "granulocyte-macrophage progenitors (CFU-GM)", "experiment": "cells", "protocol": "as §1, §2, §3"}, "[4]": {"experiment": "Partition in Bligh-Dyer extracts", "format": "physicochemical", "protocol": "At these wavelengths, there was minimal absorbance by cellular components contained in the chloroform phase. […] METHOD: […] The monolayers were treated with 25 μM 1b or 1c and incubated at 37° C. After incubating the samples for the times indicated in FIG. 1, the monolayers were washed three times with DPBS and detached using 1 ml of Trypsin-EDTA.An aliquot of the cell suspension was counted using a Coulter Counter and a 0.8 ml aliquot was extracted in a Bligh-Dyer extraction (Bligh et at., Can. J. Biochem. 31:911-916 (1959)). The absorbance of the lower chloroform phase was measured at 648 nm and 600 nm using a spectrophotometer. The amount of 1b or 1c present in the extract was quantitated from a standard curve performed in cell extracts. The data is expressed as nmol anthraquinone/10^6 cells."}, "[5]": {"tested_on": "MCF7 WT", "experiment": "Tumor cell clonogenic assay, MCF7 WT", "format": "cell-based, human", "conditions": "Homo sapiens, MCF7; tumor cell clonogenic assay, 10-12 days; read-out: Continuous Exposure IC50, MCF7 WT", "description": "The tumor cell clonogenic assays measure clonal proliferation of tumor cells. In this assay, 300-500 cells are plated in 10 cm^2 wells, allowed to adhere overnight, and are treated the following day. Tumor cell colonies were counted after 10-12 days of culture. […] The IC50's are calculated as described above for the MTT proliferation assays."}, "[6]": {"tested_on": "PKC", "experiment": "Micellar PKC screening assay", "format": "biochemical", "excerpt": "The N-substituted diaminoanthraquinone, 1b, (1,4-bis-[[3'-(diethylamino)propyl]amino]anthraquinone), was identified as a PKC inhibitor in the micellar PKC screening assay and in platelets. […] Spectrophotometric analysis of 1b and lc indicated they were excellent chromophores with absorbance maxima at 648 and 600 nm in chloroform, respectively, and extinction coefficients of approximately 20,000. At these wavelengths, there was minimal absorbance by cellular components contained in the chloroform phase. These properties of 1b and 1c were utilized to determine the time course of accumulation of these compounds in MDR MCF7 Adr 10 cells.\nThe activities of 1a, 1b, 1c and 1d and mitoxantrone, an anthraquinone antineoplastic drug, were evaluated in vinblastine drug accumulation assays performed by the following method. […] Mitoxantrone was identified as a PKC inhibitor in miceliar PKC assays. Compound 1d (1,4-bis-[[2-(4-morpholino)ethyl]amino]anthraquinone) was only evaluated in cellular studies."}, "[7]": {"tested_on": "PKC", "experiment": "PKC inhibition in platelets", "format": "cell-based"}, "[8]": {"tested_on": "MCF7 Adr 10", "experiment": "Tumor cell clonogenic assay, MCF7 ADR 10", "format": "cell-based, human"}, "[9]": {"tested_on": "MCF7 Adr 10 human breast cancer cells", "experiment": "Time course of accumulation of anthraquinones in cells", "format": "cell-based", "conditions": "25 μM, 37° C., MCF7 Adr 10 cells", "protocol": "METHOD: Near confluent monolayers of MCF7 ADR 10 were washed 2 times with Dulbecco's Phosphate Buffered Saline (DPBS) and 1 ml of Iscove's Modified Dulbecco's Medium (IMDM) was added to each well. The monolayers were treated with 25 μM 1b or 1c and incubated at 37° C. After incubating the samples for the times indicated in FIG. 1, the monolayers were washed three times with DPBS and detached using 1 ml of Trypsin-EDTA.An aliquot of the cell suspension was counted using a Coulter Counter and a 0.8 ml aliquot was extracted in a Bligh-Dyer extraction (Bligh et at., Can. J. Biochem. 31:911-916 (1959)). The absorbance of the lower chloroform phase was measured at 648 nm and 600 nm using a spectrophotometer. The amount of 1b or 1c present in the extract was quantitated from a standard curve performed in cell extracts. The data is expressed as nmol anthraquinone/10^6 cells."}, "[10]": {"conditions": "clinical trials; cited from earlier work"}, "[11]": {"tested_on": "MDR cell lines", "conditions": "literature, cited from earlier work"}, "[12]": {"target": "P-glycoprotein in MCF7 Adr 10 membrane vesicles (Homo sapiens, UniProt P08183)", "sequence (P08183 whole entry)": "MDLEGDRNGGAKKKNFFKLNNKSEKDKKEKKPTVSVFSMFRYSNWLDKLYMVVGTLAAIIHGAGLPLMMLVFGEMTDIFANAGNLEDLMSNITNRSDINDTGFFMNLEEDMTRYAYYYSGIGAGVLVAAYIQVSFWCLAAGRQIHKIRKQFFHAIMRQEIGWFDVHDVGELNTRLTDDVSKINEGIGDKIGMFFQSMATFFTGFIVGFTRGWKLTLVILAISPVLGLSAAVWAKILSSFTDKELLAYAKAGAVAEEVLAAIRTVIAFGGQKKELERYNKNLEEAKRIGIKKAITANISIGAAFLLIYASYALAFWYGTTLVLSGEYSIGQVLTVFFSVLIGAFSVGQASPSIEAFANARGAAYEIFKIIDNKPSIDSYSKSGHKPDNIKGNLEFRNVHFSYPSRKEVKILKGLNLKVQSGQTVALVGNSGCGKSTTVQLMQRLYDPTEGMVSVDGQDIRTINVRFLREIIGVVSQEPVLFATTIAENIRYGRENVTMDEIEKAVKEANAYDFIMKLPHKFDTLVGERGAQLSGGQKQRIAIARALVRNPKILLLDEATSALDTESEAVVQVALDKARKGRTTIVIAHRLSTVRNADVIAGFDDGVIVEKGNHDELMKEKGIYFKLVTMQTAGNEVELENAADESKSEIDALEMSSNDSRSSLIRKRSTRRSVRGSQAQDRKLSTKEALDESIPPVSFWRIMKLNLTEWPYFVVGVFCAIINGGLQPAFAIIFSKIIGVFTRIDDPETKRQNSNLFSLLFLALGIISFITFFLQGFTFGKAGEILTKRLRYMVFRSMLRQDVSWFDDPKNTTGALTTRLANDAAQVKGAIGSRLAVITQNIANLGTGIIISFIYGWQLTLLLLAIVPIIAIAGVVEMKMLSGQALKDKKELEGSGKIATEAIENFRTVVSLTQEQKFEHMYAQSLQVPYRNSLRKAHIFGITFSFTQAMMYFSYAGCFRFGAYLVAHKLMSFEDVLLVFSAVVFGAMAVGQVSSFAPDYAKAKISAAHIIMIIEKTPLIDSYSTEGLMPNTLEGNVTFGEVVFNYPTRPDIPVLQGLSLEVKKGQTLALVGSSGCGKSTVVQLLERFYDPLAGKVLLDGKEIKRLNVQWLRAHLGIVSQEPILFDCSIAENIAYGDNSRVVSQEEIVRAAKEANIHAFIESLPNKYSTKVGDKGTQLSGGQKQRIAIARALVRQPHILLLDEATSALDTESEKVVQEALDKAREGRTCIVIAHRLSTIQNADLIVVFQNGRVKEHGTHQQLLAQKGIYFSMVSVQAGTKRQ"}, "[13]": {"experiment": "[3H] VLB binding to MCF7 WT membrane vesicles", "set-up": "species or system human", "conditions": "MCF7 WT vesicles", "protocol": "METHOD: Membrane vesicles from sensitive and MDR MCF7 were prepared by nitrogen cavitation and isolated by centrifugation in discontinuous sucrose gradients. […] In the presence of 100 nM [^3 H] VLB and ATP, total and nonspecific binding of [^3 H] VLB (experimentally defined as binding in the presence of a 100 μM unlabeled VLB) was measured. Association of [^3 H] […] In contrast, association of [^3 H] […] VLB with MCF7 WT vesicles."}, "[14]": {"tested_on": "casein kinase 2", "experiment": "Casein kinase 2 inhibition", "format": "biochemical", "excerpt": "One possible explanation for stimulation of phosphorylation of P-glycoprotein and MARCKS is that 1c may activate PKC or other cellular kinases by signal transduction pathways that have not yet been identified to phosphorylate these proteins. An alternative explanation for stimulation of phosphorylation of P-glycoprotein and MARCKS is that 1c inhibits protein phosphatases."}, "[15]": {"tested_on": "patients", "conditions": "human, in vivo; cited from earlier work"}, "[16]": {"tested_on": "intrinsically resistant renal cell carcinoma cell lines", "conditions": "cited from earlier work"}, "[17]": {"tested_on": "PKC", "conditions": "literature; cited from earlier work"}, "[18]": {"tested_on": "patients", "conditions": "cited from earlier work"}, "[19]": {"tested_on": "P-glycoprotein", "conditions": "cited from earlier work"}, "[20]": {"tested_on": "P-glycoprotein", "conditions": "intact MDR cells and MDR membrane vesicles; cited from earlier work"}}, "note": "pIC50: −log10 of the molar value. “Also recorded” adds a separate entry of the source. Read-outs that look alike come from different tables or passages of the source."}
{"compound": "CCN(CC)CCCNc1ccc(NCCCN(CC)CC)c2c1C(=O)c1ccccc1C2=O", "note": "[Compound 1b, 1,4-bis-[[3'-(diethylamino)propyl]amino]anthraquinone]", "values": [{"measurement": "minimal effective concentration", "setting": "[1]; Homo sapiens, NCI/ADR-RES, 100 nM [3H] VLB, 2.5 hours, FIGS. 2 and 3, read-out: lowest concentration which causes a doubling of basal accumulation of vinblastine", "value": 25, "unit": "µM"}, {"measurement": "activity in vinblastine accumulation assay / drug accumulation", "setting": "[1]", "value": "increase vinblastine accumulation in MDR MCF7"}, {"measurement": "drug accumulation relative to other PKC inhibitors", "setting": "[1]; drug accumulation assays", "value": "significantly greater activity in drug accumulation assays than other PKC inhibitors"}, {"measurement": "selectivity ratio", "setting": "[2]; CFU-GM Toxicity Index (CFU-GM IC50 / Tumor Cell Clonogenic IC50)", "value": 3.5}, {"measurement": "selectivity ratio", "setting": "[2]; cfu-gm vs mcf7, CFU-GM toxicity indices", "value": "> 1"}, {"measurement": "selectivity ratio", "setting": "[2]; mcf7 vs cfu-gm, sensitivity of both tumor lines relative to CFU-GM", "value": "2 to 3.5"}, {"measurement": "pIC50", "setting": "[3]; Homo sapiens, CFU-GM, read-out: Continuous Exposure IC50, CFU-GM", "value": 5.85}, {"measurement": "CFU-GM Toxicity Index (CFU-GM IC50 / Tumor Cell Clonogenic IC50)", "setting": "[3]; human", "value": 2.0}, {"measurement": "blue color partitioning with cellular phospholipids in the lower chloroform phase", "setting": "[4]; Bligh-Dyer extracts of treated cells", "value": "> 95", "unit": "%"}, {"measurement": "pIC50", "setting": "[5]", "value": 6.40}, {"measurement": "PKC activity in micellar PKC screening assay", "setting": "[6]", "value": "PKC inhibitor"}, {"measurement": "PKC inhibition in platelets", "setting": "[7]", "value": "PKC inhibitor"}, {"measurement": "pIC50", "setting": "[8]; Homo sapiens, NCI/ADR-RES, tumor cell clonogenic assay, 10-12 days, read-out: Continuous Exposure IC50, MCF7 ADR 10", "value": 6.15}, {"measurement": "relative sensitivity of MCF7 WT and MDR MCF7 to cytotoxicity", "setting": "[8]; clonogenic assays", "value": "MCF7 WT are more sensitive to cytotoxicity of 1b than MDR MCF7"}, {"measurement": "time of maximal accumulation of 1b and 1c", "setting": "[9]", "value": "about 2 hours"}]}
{"compound": "OCCN1CCN(CC/C=C2\\c3ccccc3Sc3ccc(C(F)(F)F)cc32)CC1", "note": "[Trans-flupenthixol]", "values": [{"measurement": "antipsychotic potency relative to the cis isomer", "setting": "[10]", "value": "much less potent antipsychotic in clinical trials than the cis isomer"}, {"measurement": "drug accumulation and reversal of resistance in MDR cell lines", "setting": "[11]", "value": "increased doxorubicin accumulation and reversed the MDR phenotype more effectively in a number of MDR cell lines than verapamil"}]}
{"compound": "CCC1(O)CC2CN(CCc3c([nH]c4ccccc34)C(C(=O)OC)(c3cc4c(cc3OC)N(C)C3C(O)(C(=O)OC)C(OC(C)=O)C5(CC)C=CCN6CCC43C65)C2)C1", "note": "(centres unmarked) [[^3 H] VLB]", "values": [{"measurement": "enhancement of [3H] VLB association by addition of ATP", "setting": "[12]", "value": "2-3 fold"}, {"measurement": "time to maximal association of [3H] VLB", "setting": "[12]", "value": "≤ 15", "unit": "min"}, {"measurement": "association of [3H] VLB relative to MCF7 Adr 10", "setting": "[13]", "value": "approximately 15%"}]}
{"compound": "O=C1c2c(O)ccc(O)c2C(=O)c2c(NCCNCCO)ccc(NCCNCCO)c21", "note": "[mitoxantrone, reference compound]", "values": [{"measurement": "inhibitory activity in in vitro casein kinase 2 assays relative to 1b or 1c", "setting": "[14]", "value": "greater inhibitory activity"}, {"measurement": "activity in vinblastine accumulation assay / drug accumulation", "setting": "[1]", "value": "significant loss of activity; also recorded: did not show significant activity"}, {"measurement": "activity in vinblastine accumulation assay / drug accumulation", "setting": "[1]; listed as Mitoxantrone", "value": "does not increase drug accumulation"}, {"measurement": "drug accumulation and reversal of resistance in MDR cell lines", "setting": "[11]", "value": "less cross-resistance"}, {"measurement": "partition into the lower chloroform phase", "setting": "[4]", "value": "does not partition into the lower chloroform phase"}, {"measurement": "PKC activity in micellar PKC screening assay", "setting": "[6]", "value": "PKC inhibitor"}, {"measurement": "inhibitory activity in in vitro PKC assays relative to 1b or 1c", "setting": "[6]", "value": "greater inhibitory activity"}]}
{"compound": "CC/C(=C(\\c1ccccc1)c1ccc(OCCN(C)C)cc1)c1ccccc1", "note": "[tamoxifen]", "values": [{"measurement": "toxicity in humans", "setting": "[15]", "value": "minimal neurologic toxicity that was reversible with cessation of tamoxifen"}, {"measurement": "drug accumulation and reversal of resistance in MDR cell lines", "setting": "[11]", "value": "can also modulate resistance of estrogen receptor-negative MDR cell lines"}, {"measurement": "drug accumulation and vinblastine resistance in renal cell carcinoma", "setting": "[16]", "value": "increase drug accumulation and decrease vinblastine resistance"}]}
{"compound": "COc1ccc(CCN(C)CCCC(C#N)(c2ccc(OC)c(OC)c2)C(C)C)cc1OC", "note": "(centres unmarked) [verapamil]", "values": [{"measurement": "PKC inhibition in vitro", "setting": "[17]", "value": "non-specifically inhibit PKC in vitro"}, {"measurement": "dose-limiting toxicity", "setting": "[18]", "value": "dose-limiting cardiac toxicity"}, {"measurement": "concentrations inhibiting the MDR phenotype", "setting": "[11]", "value": "2 to 10", "unit": "µM"}, {"measurement": "drug accumulation and reversal of resistance in MDR cell lines", "setting": "[11]", "value": "more effective in reversal of resistance to anticancer drugs in other studies"}, {"measurement": "drug accumulation and reversal of resistance in MDR cell lines", "setting": "[11]; listed as Verapamil", "value": "increases in accumulation and decreases in resistance to natural product chemotherapeutic drugs"}]}
{"compound": "Cyclosporin A", "values": [{"measurement": "inhibition of vincristine and vinblastine binding to P-glycoprotein", "setting": "[19]", "value": "competitively inhibits vincristine and vinblastine binding to the P-glycoprotein"}, {"measurement": "[3H] azidopine photoaffinity labeling of P-glycoprotein", "setting": "[20]", "value": "inhibit"}]}
{"compound": "O-acetyl C9 -cyclosporin A [SDZ 33-243]", "values": [{"measurement": "[3H] azidopine photoaffinity labeling of P-glycoprotein", "setting": "[20]", "value": "inhibit"}]}
